According to article PMC12155470, “Novel Tetraene Macrodiolides Are Effective Inducers of Mitochondrial Apoptosis in Jurkat Cells” (International Journal of Molecular Sciences, 2025):
Where two headings read alike, the source gives them in different places.

Columns and labels:
[1] = test system: Jurkat, K562, U937, HEK293, and HeLa cell cultures; settings: cited from earlier work
Jurkat cells [2] = experiment: Cytochrome C assay (flow cytometry); assay type: cell-based, Human; settings: compound at CC50 concentration, 6 h (Figure 4; method says four hours)
Text: The quantification of cytochrome c release from the mitochondria in apoptotic cells was used to detect the mitochondrial pathway of apoptosis in the cells by flow cytometry. This study employed a direct labeling method that utilized an anti-cytochrome cFITC antibody, an anti-IgG1-FITC isotype control, and optimized fixation, permeabilization, and blocking buffers to detect cytochrome c by flow cytometry (Luminex®, Austin, TX, USA). […] The Jurkat cells were exposed to test substances at concentrations corresponding to their 24-h CC50 in these cells for a period of four hours. Thereafter, analysis by flow cytometry (NovoCyte Flow Cytometry™ Agilent, San Diego, CA, USA) was conducted. The acquired data were processed using NovoExpress® software (version 1.6.2) (ACEA (Agilent, Santa Clara, CA, USA)).
Figure 4 Detection of cytochrome c in Jurkat cells stained with a FlowCellect Cytochrome c Kit. The control compound, carbonyl cyanide m-chlorophenylhydrazone (CCCP), was administered at a concentration equal to its CC50 value. Compound 9d was added to the sample cells at a CC50 concentration (see the table of cell viability). The cells were incubated for 6 h. We compared the numerical values to determine the reliability of the differences observed between the control sample and the samples treated with the synthesized substances. […]

K562 = experiment: In vitro cytotoxic activity, 7-AAD flow cytometry, K562; assay type: cell-based, Human; settings: Homo sapiens, K562, 24 h, 24 h incubation, mean ± SD, triplicate
Text: (§1) The investigation focused on the assessment of the synthesized compounds’ toxicities, utilizing a panel of six diverse cell lines. The selection of cells was based on the specific features of their metabolism, namely, Jurkat, K562, U937, and HL60 cells are suspension cultures of oncohematologic origin, and HEK293 is a conditionally normal line transformed by adenovirus and often used as control cells along with fibroblasts. The normal fibroblast line (Wi-38) utilized in the experiment was diploid and was obtained from the lung tissue of an aborted fetus. The total cytotoxic activity of 16 compounds was studied using flow cytometry.
(§2) Human cancer cell lines, including Jurkat, K562, U937, HL60, and fibroblasts (Wi-38), were obtained from the European Authentic Cell Culture Collection and further cultured according to established standard protocols using sterile methods. The cells were cultivated in RPMI 1640 (for Jurkat and K562) and DMEM (for Wi-38 and HEK293) media (Gibco, Billings, MT, USA), with the addition of […] glutamine, 10% FBS (Sigma, Kanagawa, Japan), and 100 U/mL penicillin–streptomycin (Sigma). All cell types were cultivated in a humidified atmosphere containing 5% CO₂ at a temperature of 37 °C. Subculturing was performed at two- to three-day intervals. The cells were subsequently seeded into 24-well plates at a density of 5 × 10^4 cells per well and incubated overnight. Subsequent subculturing was then performed at two-day intervals, with a seeding density of 1 × 10^5 cells per 24-well plate, using RPMI medium with 10% FBS [49].
(§3) The dissolution of the compounds tested was initially performed in dimethyl sulfoxide (DMSO) with an initial solution of 100 mM in 10% DMSO. Subsequently, the solution was diluted in a complete culture medium, namely, Dulbecco’s medium, modified Eagle’s medium (DMEM), or Roswell Park Memorial Institute medium (RPMI). Substances were added at concentrations of 10, 1, 100, 10, 1, and 0.1 μM on the day after seeding and incubated for 24 h. Following this, the cells were washed with a phosphate-buffered saline (PBS) solution and stained with 7AAD dye, as per the manufacturer’s protocol for flow cytometry. The CC50 value, which characterizes the parameters of toxicity (i.e., the concentration of the compound required for 50% inhibition of cell viability in vitro), was calculated. logC versus % inhibition was plotted, and statistical data processing was performed using Excel and GraphPad Prism v.8.0.2 (San Diego, CA, USA, 2019). The data obtained from three independent experiments were expressed as the mean of three measurements for each concentration, with the standard deviation indicated as well. These values were then relative to the control values (0.1% DMSO), which were taken as 100%.
(§4) 7-AAD (7-aminoactinomycin D) dye (eBioscience™, San Diego, CA, USA) was used to assess cell viability. Following incubation with the test compounds, the cells were harvested, washed with a phosphate–salt buffer (PBS), and subjected to centrifugation at 400× g for five minutes. The cell sediment was resuspended in 200 μL of staining buffer for flow cytometry (PBS without calcium and magnesium, 2.5% FBS) and stained with a 1 mM 7-AAD dye solution for 15 min in the dark at room temperature. Subsequently, all samples, including experimental and control groups, were analyzed using a BD FACSAria™ III Cell Sorter flow cytometer (Milpitas, CA, USA).

U937 = experiment: In vitro cytotoxic activity, 7-AAD flow cytometry, U937; assay type: cell-based, Human; settings: 24 h incubation, mean ± SD, triplicate
Text: as §1, §2, §3, §4

HL60 = experiment: In vitro cytotoxic activity, 7-AAD flow cytometry, HL60; assay type: cell-based; settings: Homo sapiens, HL-60, 24 h incubation, mean ± SD, triplicate
Text: as §1, §2, §3, §4

[3] = In vitro cytotoxic activity, 7-AAD flow cytometry, normal fibroblasts; assay type: cell-based; settings: human, Wi-38 normal lung fibroblasts, normal fibroblasts Wi-38, 24 h incubation, mean ± SD, read-out: Fibrobl. (CC50)
Text: as §1, §2, §3, §4

[4] = In vitro cytotoxic activity, 7-AAD flow cytometry, Hek293; assay type: cell-based; settings: human, HEK293 cells, conditionally normal line, 24 h incubation, mean ± SD
Text: as §1, §2, §3, §4

Jurkat = experiment: In vitro cytotoxic activity, 7-AAD flow cytometry, Jurkat; assay type: cell-based, Human; settings: Homo sapiens, Jurkat, 24 h, 24 h incubation, mean ± SD, triplicate
Text: as §1, §2, §3, §4

Jurkat cells [5] = experiment: Mitodamage assay (MitoSense Red, Annexin V-CF488A, 7-AAD); assay type: cell-based, Human; settings: compound at CC50 concentration, four hours, MitoSense Red
Description: To this end, MitoSense Red, a fluorescent dye that accumulates predominantly in mitochondria and responds to changes in membrane potential, was utilized. […] Two dyes commonly employed for detecting apoptosis in cells are annexin V and 7AAD. […] Therefore, the dissipation of mitochondrial membrane potential and the associated apoptosis process in Jurkat tumor cells were analyzed in response to exposure to synthesized macrodiolides. MitoSense Red, Annexin V-CF488A, and 7-AAD were used as dyes for this analysis (see Figure 3). A flow cytometry kit (FlowCellect™ MitoDamage Kit from Millipore, Hayward, CA USA) was utilized, as it facilitates a multiparametric evaluation of three markers of cell health. These markers include changes in mitochondrial potential (early apoptosis and cell stress), phosphatidylserine expression on the cell surface (late apoptosis), and membrane permeability (cell death). The method of the simultaneous detection of mitochondrial damage was performed according to the well-known technique.  Figure 3 Detection changes in mitochondrial membrane potential (ΔΨ) and coupled early and late apoptosis in Jurkat cells treated with compounds 9d, 8d, 7d, and 6d. Staurosporine and carbonyl cyanide-m-chlorophenylhydrazone were utilized as control compounds. The addition of all the tested compounds was executed at the CC50 concentration (refer to the provided table for the cytotoxicities of the synthesized compounds). The staining of cells was conducted using MitoSense Red, Annexin V-CF488A, and 7-AAD. The incubation period lasted for a duration of four hours. The presence of three *** (p < 0.001) and two asterisks ** (p < 0.005) indicates the significance of the observed differences between the values obtained in the control sample and the samples treated with the synthesized substances (comparison was performed by one-way ANOVA). All experiments were performed in triplicate.

Compound	CC50 ([1]; K562, HEK293, and HeLa) [nM]	CC50 ([1]; individual cell cultures Jurkat, U937) [nM]	cells releasing cytochrome c into the cytoplasm (Cytochrome loss %) (Jurkat cells [2]) [%]	CC50 (K562) [nM]	CC50 (U937; Homo sapiens, U-937, 24 h) [nM]	CC50 (HL60) [nM]	CC50 at 24 h [3] [nM]	CC50 at 24 h [4] [nM]	CC50 (Jurkat) [nM]	Jurkat cells with reduced mitochondrial membrane potential (Δψ dissipation) (Jurkat cells [5]) [%]	CC50 (U937) [nM]
O=C1CCCCCC(=O)OCCCCCC/C=C\CC/C=C\CCCCCCO1	60 to 150	10 to 20									
N#CC(C#N)=NNc1cccc(Cl)c1 [CCCP, carbonyl cyanide-m-chlorophenylhydrazone, reference compound]			79.35								
O=C1CC/C=C\CC/C=C\CCC(=O)OCCC/C=C\CC/C=C\CCCO1 [Compound 6a]				24.8 ± 2.37	23.1 ± 2.11	19.8 ± 1.81	76.2 ± 7.62	52.3 ± 5.17	28.3 ± 2.65		
O=C1CCC/C=C\CC/C=C\CCCC(=O)OCCC/C=C\CC/C=C\CCCO1 [Compound 6b]				21.5 ± 2.01	22.4 ± 2.24	20.4 ± 2.1	61.9 ± 6.27	46.2 ± 3.75	21.2 ± 1.97		
O=C1CCCC/C=C\CC/C=C\CCCCC(=O)OCCC/C=C\CC/C=C\CCCO1 [Compound 6c]				19.7 ± 1.63	19.2 ± 1.87	20.1 ± 1.95	58.9 ± 5.81	42.8 ± 4.39	22.1 ± 2.14		
O=C1CCCCC/C=C\CC/C=C\CCCCCC(=O)OCCC/C=C\CC/C=C\CCCO1 [Compound 6d]				16.9 ± 1.88	15.2 ± 1.56	15.7 ± 1.43	59.4 ± 5.46	44.3 ± 4.21	18.5 ± 1.78	58.99	
O=C1CC/C=C\CC/C=C\CCC(=O)OCCCC/C=C\CC/C=C\CCCCO1 [Compound 7a]				23.6 ± 2.14	22.2 ± 2.34	20.4 ± 2.07	67.2 ± 6.39	49.9 ± 4.83	26.4 ± 2.46		
O=C1CCC/C=C\CC/C=C\CCCC(=O)OCCCC/C=C\CC/C=C\CCCCO1 [Compound 7b]				18.1 ± 1.83	17.4 ± 1.71	18.2 ± 1.76	62.6 ± 5.94	53.1 ± 4.96	20.3 ± 2.04		
O=C1CCCC/C=C\CC/C=C\CCCCC(=O)OCCCC/C=C\CC/C=C\CCCCO1 [Compound 7c]				16.7 ± 1.59	17.3 ± 1.62	15.3 ± 1.48	59.5 ± 5.37	46.3 ± 3.99	18.4 ± 1.86		
O=C1CCCCC/C=C\CC/C=C\CCCCCC(=O)OCCCC/C=C\CC/C=C\CCCCO1 [Compound 7d]				17.1 ± 1.84	15.1 ± 1.43	14.5 ± 1.57	60.2 ± 5.21	48.6 ± 4.82	18.1 ± 1.91	69.26	
O=C1CC/C=C\CC/C=C\CCC(=O)OCCCCC/C=C\CC/C=C\CCCCCO1 [Compound 8a]				22.3 ± 2.16	23.4 ± 2.27	21.8 ± 1.96	86.4 ± 7.11	64.3 ± 5.37	25.3 ± 2.63		
O=C1CCC/C=C\CC/C=C\CCCC(=O)OCCCCC/C=C\CC/C=C\CCCCCO1 [Compound 8b]				19.2 ± 1.79	17.9 ± 1.83	18.7 ± 1.71	67.2 ± 6.24	48.2 ± 4.34	21 ± 2.34		
O=C1CCCC/C=C\CC/C=C\CCCCC(=O)OCCCCC/C=C\CC/C=C\CCCCCO1 [Compound 8c]				16.9 ± 1.62	15.5 ± 1.49	14.7 ± 1.42	64.8 ± 6.35	47.3 ± 4.22	17.8 ± 1.73		
O=C1CCCCC/C=C\CC/C=C\CCCCCC(=O)OCCCCC/C=C\CC/C=C\CCCCCO1 [Compound 8d]				15.2 ± 1.46	12.2	11.1 ± 1.39	63.7 ± 6.07	51.1 ± 5.6	16.1 ± 1.58	75.42	12.2 ± 1.37
O=C1CC/C=C\CC/C=C\CCC(=O)OCCCCCC/C=C\CC/C=C\CCCCCCO1 [Compound 9a]				20.4 ± 1.89	19.8 ± 1.97	20.2 ± 2.17	79.9 ± 6.9	54.9 ± 5.37	24.2 ± 2.39		
O=C1CCC/C=C\CC/C=C\CCCC(=O)OCCCCCC/C=C\CC/C=C\CCCCCCO1 [Compound 9b]				17.3 ± 1.64	15.7 ± 1.53	15.6 ± 1.49	61.6 ± 5.92	52 ± 5.43	18.3 ± 2.04		
O=C1CCCC/C=C\CC/C=C\CCCCC(=O)OCCCCCC/C=C\CC/C=C\CCCCCCO1 [Compound 9c]				14.7 ± 1.49	13.1 ± 1.31	12.8 ± 1.37	59.4 ± 5.29	49.2 ± 4.77	17.3 ± 1.59		
